Measured values from patent publication US8455516B2, “HIV-1 fusion inhibitors and methods” (Touro University, priority 2010, dated 2013).
Read-outs that look alike come from different tables or passages of the source.

Columns and labels:
[1] = cytotoxicity, luciferase expression-based test; details: human, TZM-bl cells
in vitro = details: human
[2] = test system: Pseudovirus HIV-1 BAL (CCR5-tropic strain); test: microbe, parasite or virus in culture; details: MAGI
MAGI cells = details: human
HIV-1 IIIB = test: HIV-1 viral infectivity inhibition, IIIB; type: cell-based; details: Human immunodeficiency virus 1, IIIB
Experimental: (§1) The ability of the compounds to inhibit HIV-1 infectivity was assessed using standard assays as reported in the literature. See: 1) Desmezieres, E.; Gupta, N.; Vassell, R.; He, Y.; Peden, K.; Sirota, L.; Yang, Z.; Wingfield, P.; Weiss, C. D. J Virol 2005, 79, 4774, and 2) Lackman-Smith, C.; Osterling, C.; Luckenbaugh, K.; Mankowski, M.; Snyder, B.; Lewis, G.; Paull, J.; Profy, A.; Ptak, R. G.; Buckheit, R. W., Jr.; Watson, K. M.; Cummins, J. E.; Sanders-Beer, B. E. Antimicrob Agents Chemother 2008.

HIV-1 HXB2 = test: HIV-1 viral infectivity inhibition, HXB2; type: cell-based; details: Human immunodeficiency virus 1, HXB2
Experimental: as §1

HIV-1 Ba-L = test: HIV-1 viral infectivity inhibition, Ba-L; type: cell-based; details: Human immunodeficiency virus 1, BAL
Experimental: as §1

[3] = test system: Pseudovirus HIV-1 BAL (CCR5-tropic strain)
TZM-bl cells = test: cytotoxicity, luciferase expression-based test; details: toxicity to TZM-bl cells, 24 hour exposure
[4] = molecular target: T1, gp41 hydrophobic pocket (receptor Fe(env2.0)3) (Human immunodeficiency virus type 1 group M subtype B, UniProt P04578); test: competitive inhibition fluorescence binding assay for the gp41 hydrophobic pocket; set-up: species or system HIV-1; details: binding constant, hydrophobic pocket of gp41
T1 construct: utilizing a receptor Fe(env2.0)3 selective for the hydrophobic pocket
Experimental: Compounds were validated for binding activity with a biochemical assay, and for biological activity with a cell-cell fusion (CCF) assay.
Association between the C-peptide and receptor leads to fluorescence quenching, which is reversed in the presence of an inhibitor. […] The assay is quantitative and provides the binding constant (KI) of the inhibitor.
Toxicity of the compounds to TZM-bl cells was also tested to ensure that the luminescence decrease was not simply due to cell death (CC50, toxicity).

O=C(O)C(=O)c1c[nH]c2cc(Cc3cccc(C(=O)O)c3)ccc12 [Compound I-3, 3-((3-(carboxycarbonyl)-1H-indol-6-yl)methyl)benzoic acid]
CC50 at 24 h [1]: > 100 µM

O=C(O)c1cccc(Cn2ccc3cc(-c4ccc5cc(Cl)ccc5n4)ccc32)c1 [II-2, 3-((5-(6-chloroquinolin-2-yl)-1H-indol-1-yl)methyl)benzoic acid]
CC50 at 24 h [1]: 156 µM

O=C(O)c1cccc(Cc2ccc3ccn(Cn4ccc5ccc(Cc6cccc(C(=O)O)c6)cc54)c3c2)c1 [Compound I-5, 3,3′-(1,1′-methylenebis(1H-indole-6,1-diyl))bis(methylene)dibenzoic acid]
CC50 (in vitro): > 100 µM | IC50 ([2]; 2% Serum): 14.6 µM | IC90 ([2]; 2% Serum): 71.2 µM | IC50 ([2]; 5% Serum): 49.6 µM | IC90 ([2]; 5% Serum): 93.6 µM | IC50 ([2]; 10% Serum): 92.1 µM | IC90 ([2]; 10% Serum): > 100 µM | CC50 at 24 h [1]: > 100 µM | CC50 (MAGI cells): > 100 µM | IC50 (HIV-1 IIIB): ≥ 100 µM | IC50 (HIV-1 HXB2): 17 µM | IC50 (HIV-1 Ba-L): 92.1 µM | TI (TC50/IC50) ([3]; 2% Serum): >6.85 | TI (TC50/IC50) ([3]; 5% Serum): >2.02 | TI (TC50/IC50) ([3]; 10% Serum): >1.09

O=C(O)c1cccc(Cc2ccc3c(ccn3Cc3cccc(C(=O)O)c3)c2)c1 [Compound I-10, 3-((1-(3-carboxybenzyl)-1H-indol-5-yl)methyl)benzoic acid]
CC50 (TZM-bl cells): > 400 µM

COc1cccc(-c2ccc3ccn(Cc4cccc(C(=O)O)c4)c3c2)c1 [Compound I-11, 3-((6-(3-methoxyphenyl)-1H-indol-1-yl)methyl)benzoic acid]
CC50 (in vitro): > 100 µM | IC50 ([2]; 2% Serum): 18 µM | IC90 ([2]; 2% Serum): > 100 µM | IC50 ([2]; 5% Serum): 36.6 µM | IC90 ([2]; 5% Serum): > 100 µM | IC50 ([2]; 10% Serum): 47.4 µM | IC90 ([2]; 10% Serum): > 100 µM | CC50 at 24 h [1]: > 100 µM | IC50 (HIV-1 IIIB): 57.4 µM | IC50 (HIV-1 Ba-L): 47.4 µM | TI (TC50/IC50) ([3]; 2% Serum): 3.75 | TI (TC50/IC50) ([3]; 5% Serum): >2.73 | TI (TC50/IC50) ([3]; 10% Serum): >2.11

COc1ccc(Cn2ccc3ccc(-c4ccc5ccn(Cc6cccc(C(=O)O)c6)c5c4)cc32)cc1 [II-3, 3-((1′-(4-methoxybenzyl)-1H,1′H-6,6′-biindol-1-yl)methyl)benzoic acid]
CC50 at 24 h [1]: 18.9 ± 2.9 µM

O=C(O)c1cccc(-c2ccc3cc[nH]c3c2)c1 [Compound I-12, 3-(1H-indol-6-yl)benzoic acid]
CC50 at 24 h [1]: > 100 µM

COc1cccc(-n2ccc3ccc(Cc4cccc(C(=O)O)c4)cc32)c1 [Compound I-7, 3-((1-(3-methoxyphenyl)-1H-indol-6-yl)methyl)benzoic acid]
CC50 (in vitro): > 100 µM | IC50 ([2]; 2% Serum): 15.8 µM | IC90 ([2]; 2% Serum): > 100 µM | IC50 ([2]; 5% Serum): 34 µM | IC90 ([2]; 5% Serum): > 100 µM | IC50 ([2]; 10% Serum): 67.7 µM | IC90 ([2]; 10% Serum): > 100 µM | CC50 at 24 h [1]: > 100 µM | CC50 (MAGI cells): > 100 µM | IC50 (HIV-1 IIIB): 61.5 µM | IC50 (HIV-1 Ba-L): 67.7 µM | TI (TC50/IC50) ([3]; 2% Serum): >6.33 | TI (TC50/IC50) ([3]; 5% Serum): >2.94 | TI (TC50/IC50) ([3]; 10% Serum): >1.48

O=C(O)c1cccc(Cc2ccc3[nH]ccc3c2)c1 [Compound I-9, 3-((1H-indol-5-yl)methyl)benzoic acid]
CC50 at 24 h [1]: > 400 µM

COc1cc(Cc2ccc3cc[nH]c3c2)cc(C(=O)O)c1 [Compound I-20, 3-((1H-indol-6-yl)methyl)-5-methoxybenzoic acid]
CC50 at 24 h [1]: > 100 µM

COc1ccc(Cn2ccc3ccc(Cc4cccc(C(=O)O)c4)cc32)cc1 [Compound I-2, 3-((1-(4-methoxybenzyl)-1H-indol-6-yl)methyl)benzoic acid]
CC50 (TZM-bl cells): 100 µM

O=C(O)c1cccc(Cn2ccc3cc(-c4cccc(C(=O)O)c4)ccc32)c1 [Compound I-13, 3-(1-(3-carboxybenzyl)-1H-indol-5-yl)benzoic acid]
CC50 (TZM-bl cells): > 400 µM

O=C(O)c1cccc(Cn2ccc3ccc(-c4ccc5cc(Cl)ccc5n4)cc32)c1 [II-1, 3-((6-(6-chloroquinolin-2-yl)-1H-indol-1-yl)methyl)benzoic acid]
CC50 at 24 h [1]: 93 µM

O=C(O)c1cccc(COc2cccc(-c3ccc4ccn(Cc5cccc(C(=O)O)c5)c4c3)c2)c1 [Compound I-21, 3-((3-(1-(3-carboxybenzyl)-1H-indol-6-yl)phenoxy)methyl)benzoic acid]
CC50 at 24 h [1]: > 100 µM

COc1ccc(C(=O)O)cc1Cc1ccc2cc[nH]c2c1 [Compound I-17, 3-((1H-indol-6-yl)methyl)-4-methoxybenzoic acid]
CC50 at 24 h [1]: > 100 µM

O=C(O)c1ccc(O)c(Cc2ccc3cc[nH]c3c2)c1 [Compound I-19, 3-((1H-indol-6-yl)methyl)-4-hydroxybenzoic acid]
CC50 at 24 h [1]: > 100 µM

O=C(O)c1cccc(Cc2ccc3ccn(-c4cccc(C(=O)O)c4)c3c2)c1 [Compound I-6, 3-(6-(3-carboxybenzyl)-1H-indol-1-yl)benzoic acid]
CC50 (TZM-bl cells): > 400 µM | Ki [4]: 45 ± 5 µM

O=Cc1c[nH]c2cc(Cc3cccc(C(=O)O)c3)ccc12 [Compound I-8, 3-((3-formyl-1H-indol-6-yl)methyl)benzoic acid]
CC50 at 24 h [1]: > 100 µM

O=C(O)c1ccc([N+](=O)[O-])c(Cc2ccc3cc[nH]c3c2)c1 [Compound I-16, 3-((1H-indol-6-yl)methyl)-4-nitrobenzoic acid]
CC50 at 24 h [1]: > 100 µM

O=[N+]([O-])c1cccc(Cc2ccc3cc[nH]c3c2)c1 [Compound I-15, 6-(3-nitrobenzyl)-1H-indole]
CC50 at 24 h [1]: ~63 µM

COc1ccc(COc2cccc(-c3ccc4ccn(Cc5cccc(C(=O)OCc6cccc(C(=O)O)c6)c5)c4c3)c2)cc1 [Compound I-22, 3-((3-((6-(3-(4-methoxybenzyloxy)phenyl)-1H-indol-1-yl)methyl)benzoyloxy)methyl)benzoic acid]
CC50 (in vitro): > 100 µM | IC50 ([2]; 2% Serum): 13.8 µM | IC90 ([2]; 2% Serum): 31.1 µM | IC50 ([2]; 5% Serum): 18.7 µM | IC90 ([2]; 5% Serum): 76.4 µM | IC50 ([2]; 10% Serum): 22.6 µM | IC90 ([2]; 10% Serum): 91.7 µM | CC50 at 24 h [1]: > 100 µM | TI (TC50/IC50) ([3]; 2% Serum): 4.27 | TI (TC50/IC50) ([3]; 5% Serum): >5.35 | TI (TC50/IC50) ([3]; 10% Serum): >4.42

O=C(O)c1cccc(Cc2ccc3cc[nH]c3c2)c1 [Compound I-1, 3-((1H-indol-6-yl)methyl)benzoic acid]
CC50 (in vitro): > 100 µM | IC50 ([2]; 2% Serum): 15.5 µM | IC90 ([2]; 2% Serum): 58 µM | IC50 ([2]; 5% Serum): 34.8 µM | IC90 ([2]; 5% Serum): 89.4 µM | IC50 ([2]; 10% Serum): 44.7 µM | IC90 ([2]; 10% Serum): > 100 µM | CC50 at 24 h [1]: > 500 µM | CC50 (MAGI cells): > 100 µM | IC50 (HIV-1 IIIB): 99.9 µM | IC50 (HIV-1 Ba-L): 44.7 µM | TI (TC50/IC50) ([3]; 2% Serum): >6.45 | TI (TC50/IC50) ([3]; 5% Serum): >2.87 | TI (TC50/IC50) ([3]; 10% Serum): >2.24

O=C(O)c1cccc(Cn2ccc3ccc(-c4cccc(O)c4)cc32)c1 [Compound I-14, 3-((6-(3-hydroxyphenyl)-1H-indol-1-yl)methyl)benzoic acid]
CC50 at 24 h [1]: > 100 µM

O=C(O)c1cccc(Cc2ccc3ccn(Cc4cccc(C(=O)O)c4)c3c2)c1 [Compound I-4, 3-((1-(3-(carboxy)benzyl)-1H-indol-6-yl)methyl)benzoic acid]
CC50 at 24 h [1]: > 200 µM

O=C(O)c1cc(O)cc(Cc2ccc3cc[nH]c3c2)c1 [Compound I-18, 3-((1H-indol-6-yl)methyl)-5-hydroxybenzoic acid]
CC50 at 24 h [1]: > 100 µM
